The target of this test is T1, human Nav1.8/b3 (Homo sapiens, UniProt Q9Y5Y9).
T1 construct: expressed in transfected cells; host or cells: CHO
Put plainly: Compound Profiling Human NaV1.8/β3 Cell Line—SyncroPatch384PE Assay (automated patch clamp, stably transfected CHO cells). The settings on record: Nav1.8/b3 CHO cells. The test is classed as cell-based. For orientation: In patch-clamp work, channel activity is measured electrically.

Setting [1] is: P1 (IC50, resting state block), P1 measurement, resting state block, holding potential −120 mV, third set of compounds.
Where [2] appears, read: P2 (IC50, inactivated state block), P2 measurement, inactivated state block, inactivation step −35 mV 10 sec, third set of compounds.
Where [3] appears, read: P1 (IC50, resting state block), P1 measurement, resting state block, holding potential −120 mV, first set of compounds.
Setting [4] is: P2 (IC50, inactivated state block), P2 measurement, inactivated state block, inactivation step −35 mV 10 sec, first set of compounds.
Setting [5] is: P1 (IC50, resting state block), P1 measurement, resting state block, holding potential −120 mV, fourth set of compounds.
The mark [6] stands for this setting: P2 (IC50, inactivated state block), P2 measurement, inactivated state block, inactivation step −35 mV 10 sec, fourth set of compounds.
[7] abbreviates: P1 (IC50, resting state block), P1 measurement, resting state block, holding potential −120 mV, second set of compounds.
Setting [8] is: P2 (IC50, inactivated state block), P2 measurement, inactivated state block, inactivation step −35 mV 10 sec, second set of compounds.

Counter-ions that a name gives are not always drawn. Like-named read-outs stand apart in the source and are kept apart here.

T1 sequence (Q9Y5Y9 whole entry): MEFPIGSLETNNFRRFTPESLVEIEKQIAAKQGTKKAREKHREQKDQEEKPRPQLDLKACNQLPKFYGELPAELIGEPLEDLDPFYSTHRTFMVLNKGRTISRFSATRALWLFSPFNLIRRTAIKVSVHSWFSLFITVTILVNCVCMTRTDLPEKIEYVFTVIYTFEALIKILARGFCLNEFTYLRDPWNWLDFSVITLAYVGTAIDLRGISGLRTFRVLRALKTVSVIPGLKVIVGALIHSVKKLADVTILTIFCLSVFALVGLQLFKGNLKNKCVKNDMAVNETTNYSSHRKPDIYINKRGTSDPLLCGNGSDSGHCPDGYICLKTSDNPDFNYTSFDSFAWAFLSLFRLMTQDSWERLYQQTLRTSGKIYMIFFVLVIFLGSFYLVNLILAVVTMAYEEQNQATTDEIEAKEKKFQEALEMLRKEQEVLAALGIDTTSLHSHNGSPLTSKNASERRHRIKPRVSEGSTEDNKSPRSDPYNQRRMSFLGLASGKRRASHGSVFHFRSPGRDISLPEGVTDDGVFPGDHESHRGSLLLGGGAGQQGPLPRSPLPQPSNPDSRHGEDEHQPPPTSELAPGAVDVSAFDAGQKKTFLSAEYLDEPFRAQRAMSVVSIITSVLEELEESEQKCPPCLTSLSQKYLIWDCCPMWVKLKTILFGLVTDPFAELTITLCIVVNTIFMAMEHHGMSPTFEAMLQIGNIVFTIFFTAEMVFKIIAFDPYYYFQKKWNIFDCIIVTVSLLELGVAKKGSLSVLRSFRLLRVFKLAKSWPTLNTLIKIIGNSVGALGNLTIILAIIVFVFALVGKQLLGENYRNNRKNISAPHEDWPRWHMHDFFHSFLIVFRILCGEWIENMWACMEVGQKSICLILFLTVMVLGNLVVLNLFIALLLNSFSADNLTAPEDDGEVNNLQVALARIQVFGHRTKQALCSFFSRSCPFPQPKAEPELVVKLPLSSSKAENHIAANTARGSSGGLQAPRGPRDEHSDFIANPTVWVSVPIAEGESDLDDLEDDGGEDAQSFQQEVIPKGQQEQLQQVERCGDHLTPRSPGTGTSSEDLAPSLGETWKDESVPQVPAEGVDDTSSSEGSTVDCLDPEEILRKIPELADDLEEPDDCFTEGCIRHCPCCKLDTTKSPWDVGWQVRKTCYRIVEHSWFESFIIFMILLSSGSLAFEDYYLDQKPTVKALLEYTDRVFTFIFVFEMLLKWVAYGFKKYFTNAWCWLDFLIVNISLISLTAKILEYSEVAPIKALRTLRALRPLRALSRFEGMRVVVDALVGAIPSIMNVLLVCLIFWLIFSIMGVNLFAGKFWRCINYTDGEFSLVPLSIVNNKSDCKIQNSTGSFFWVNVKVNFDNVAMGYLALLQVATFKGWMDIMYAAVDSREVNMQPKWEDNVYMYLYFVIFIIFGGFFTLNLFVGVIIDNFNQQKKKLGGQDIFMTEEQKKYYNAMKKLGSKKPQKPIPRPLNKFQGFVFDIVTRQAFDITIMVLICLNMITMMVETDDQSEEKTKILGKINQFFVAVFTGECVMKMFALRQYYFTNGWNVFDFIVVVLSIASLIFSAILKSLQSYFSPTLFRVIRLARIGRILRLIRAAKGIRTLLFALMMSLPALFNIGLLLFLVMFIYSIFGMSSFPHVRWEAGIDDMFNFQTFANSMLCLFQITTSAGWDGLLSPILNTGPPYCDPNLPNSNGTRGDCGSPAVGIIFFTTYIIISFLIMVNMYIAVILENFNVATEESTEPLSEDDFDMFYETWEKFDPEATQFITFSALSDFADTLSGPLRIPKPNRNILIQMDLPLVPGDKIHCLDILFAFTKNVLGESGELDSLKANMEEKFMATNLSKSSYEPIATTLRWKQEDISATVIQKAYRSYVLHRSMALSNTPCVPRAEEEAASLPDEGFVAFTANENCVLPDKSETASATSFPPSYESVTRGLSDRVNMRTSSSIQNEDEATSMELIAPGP
T1 sequence (Q9NY72 23-215 partner): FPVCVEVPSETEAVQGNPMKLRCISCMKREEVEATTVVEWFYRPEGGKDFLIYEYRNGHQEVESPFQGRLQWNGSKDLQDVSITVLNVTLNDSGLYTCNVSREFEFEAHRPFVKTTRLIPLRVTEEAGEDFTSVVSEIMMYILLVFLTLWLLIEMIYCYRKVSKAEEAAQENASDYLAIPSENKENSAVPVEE

As usually defined, the IC50 is the point on the concentration scale where inhibition reaches its midpoint. As to `COc1cc(C#N)ccc1Oc1ncc(-c2cn(C)nc2C)c(C)c1C(=O)Nc1cccc([S@](C)(=N)=O)c1` [Example 27C, (R)-2-(4-cyano-2-methoxyphenoxy)-5-(1,3-dimethyl-1H-pyrazol-4-yl)-4-methyl-N-(3-(S-methylsulfonimidoyl)phenyl)nicotinamide], the IC50 is, setting by setting: under setting [1], 50 to 100 nM; under setting [2], 50 to 100 nM.

With `Cc1nc(F)ccc1Oc1cc(C(F)(F)F)c(Cl)c(C)c1C(=O)Nc1cccc(C(N)=O)c1` [Example 61A], the IC50 runs as follows: under setting [3], less than 5 nM; under setting [4], less than 5 nM.

`COc1cc(C#N)ccc1Oc1ncc(Cl)c(C)c1C(=O)Nc1cccc(S(C)(=N)=O)c1` (centres unmarked) [Example 25C, 5-chloro-2-(4-cyano-2-methoxyphenoxy)-4-methyl-N-(3-(S-methylsulfonimidoyl)phenyl)nicotinamide] registered an IC50 under setting [1] of less than 5 nM and a half-maximal inhibitory concentration (IC50) under setting [2] of less than 5 nM.

`CCCc1cnc(Oc2ccc(F)nc2C)c(C(=O)Nc2cccc([S@](C)(=N)=O)c2)c1C` [Example 103C]: the IC50 was 50 to 100 nM under setting [1] and 50 to 100 nM under setting [2].

For `Cc1nc(F)ccc1Oc1nnc(C(F)(F)F)c(C)c1C(=O)Nc1cccc([S@@](C)(=O)=NC(=O)CN)c1` [Example 24D, (R)-3-((6-fluoro-2-methylpyridin-3-yl)oxy)-N-(3-(N-glycyl-S-methylsulfonimidoyl)phenyl)-5-methyl-6-(trifluoromethyl)pyridazine-4-carboxamide], the IC50 under setting [5] was in the range of 5 to 50 nM and the IC50 under setting [6] lay within 5 to 50 nM.

On to `Cc1nc(F)ccc1Oc1ncc(C(F)(F)F)c(C)c1C(=O)Nc1cccc([S@@](C)(=O)=NC(=O)[C@@H](C)N)c1` [Example 9D, N-(3-((R)—N-(D-alanyl)-S-methylsulfonimidoyl)phenyl)-2-((6-fluoro-2-methylpyridin-3-yl)oxy)-4-methyl-5-(trifluoromethyl)nicotinamide formate], for which the concentration for half-maximal inhibition (IC50) under setting [5] is less than 5 nM and the IC50 under setting [6] was less than 5 nM.

Take `Cc1nc(F)ccc1Oc1ncc(C(F)(F)F)c(C)c1C(=O)Nc1cccc(S(C)(=O)=O)c1` [Example 123C]: the IC50 is, setting by setting: under setting [1], less than 5 nM; under setting [2], less than 5 nM.

`Cc1nc(F)ccc1Oc1nc(C(F)(F)F)c(Cl)c(C)c1C(=O)Nc1ccc(F)c([S@@](C)(=N)=O)c1` [Example 94C] displayed a half-inhibitory concentration (IC50) under setting [1] of 5 to 50 nM and an IC50 under setting [2] of 5 to 50 nM.

`Cc1nc(F)ccc1Oc1cc(C(F)(F)F)c(Cl)cc1C(=O)Nc1cccc(C(N)=O)c1` [Example 73A]: the IC50 runs as follows: under setting [3], less than 5 nM; under setting [4], less than 5 nM.

Take `COc1cc(C#N)ccc1Oc1ncc(Br)c(C)c1C(=O)Nc1cccc([S@](C)(=N)=O)c1` [Example 24C, (R)-5-bromo-2-(4-cyano-2-methoxyphenoxy)-4-methyl-N-(3-(S-methylsulfonimidoyl)phenyl)nicotinamide]: the IC50 was less than 5 nM under setting [1] and less than 5 nM under setting [2].

In the case of `Cc1nc(F)ccc1Oc1cc(C(F)(F)F)c(Cl)cc1C(=O)Nc1cccc([S@@](C)(=O)=NC(=O)CN)c1` [Example 4B, (R)-5-chloro-2-((6-fluoro-2-methylpyridin-3-yl)oxy)-N-(3-(N-glycyl-S-methylsulfonimidoyl)phenyl)-4-(trifluoromethyl)benzamide], the IC50 by setting is: under setting [7], less than 5 nM; under setting [8], less than 5 nM.

Turning to `Cc1nc(F)ccc1Oc1cc(C(F)(F)F)c(Cl)cc1C(=O)Nc1ccc([S@@](C)(=N)=O)cc1` [Example 48A], the IC50 lay in the range of 50 to 100 nM under setting [3] and 50 to 100 nM under setting [4].

In the case of `C[S@@](=N)(=O)c1cc(NC(=O)c2cc(Cl)c(C(F)(F)F)cc2OCC(F)(F)F)ccn1` [Example 35A], the IC50 was 50 to 100 nM (P1 measurement, resting state block, holding potential −120 mV, first set of compounds, read-out: P1 (IC50, resting state block)) and 50 to 100 nM (P2 measurement, inactivated state block, inactivation step −35 mV 10 sec, first set of compounds, read-out: P2 (IC50, inactivated state block)).

As to `Cc1nc(F)ccc1Oc1cc(C2CC2)c(C(F)(F)F)cc1C(=O)Nc1cccc([S@@](C)(=N)=O)c1` [Example 59A], the IC50 was less than 5 nM under setting [3] and less than 5 nM under setting [4].

Consider `Cc1nc(F)ccc1Oc1ncc(C(F)(F)F)c(C)c1C(=O)Nc1cccc([S@@](C)(=O)=NC(=O)C2COC2)c1` [Example 6D, (R)-2-((6-fluoro-2-methylpyridin-3-yl)oxy)-4-methyl-N-(3-(S-methyl-N-(oxetane-3-carbonyl)sulfonimidoyl)phenyl)-5-(trifluoromethyl)nicotinamide], for which the IC50 was less than 5 nM under setting [5] and less than 5 nM under setting [6].

Take `Cc1nc(F)ccc1Oc1cc(C2CC2)c(C(F)(F)F)cc1C(=O)Nc1ccc(F)c([S@@](C)(=N)=O)c1` [Example 51A]: the half-maximal inhibitory concentration (IC50) under setting [3] was less than 5 nM and the IC50 under setting [4] was less than 5 nM.

For the molecule `Cc1nc(F)ccc1Oc1cc(C2CC2)c(C(F)(F)F)c(C)c1C(=O)Nc1ccnc([S@](C)(=N)=O)c1` [Example 39A], the IC50 reads like this: under setting [3], less than 5 nM; under setting [4], less than 5 nM.

In the case of `Cc1nc(F)ccc1Oc1cc(C(F)(F)F)c(Cl)c(F)c1C(=O)Nc1ccnc([S@](C)(=N)=O)c1` [Example 41A], the half-inhibitory concentration (IC50) reads like this: under setting [3], less than 5 nM; under setting [4], less than 5 nM.

Regarding `Cc1nc(F)ccc1Oc1cc(C(F)(F)F)c(Cl)c(C)c1C(=O)Nc1ccnc(C(N)=O)c1` [Example 62A], the IC50 runs as follows: under setting [3], less than 5 nM; under setting [4], less than 5 nM.

For `COc1c(Oc2cc(C(F)(F)F)nnc2C(=O)Nc2cccc(S(C)(=O)=O)c2)ccc(F)c1F` [Example 32C, 4-(3,4-difluoro-2-methoxyphenoxy)-N-(3-(methylsulfonyl)phenyl)-6-(trifluoromethyl)pyridazine-3-carboxamide], the concentration for half-maximal inhibition (IC50) fell in the range of 50 to 100 nM under setting [1] and 50 to 100 nM under setting [2].

As for `Cc1nc(F)ccc1Oc1cc(C(F)(F)F)c(Cl)cc1C(=O)Nc1ccnc([S@@](C)(=N)=O)c1` (single isomer, unassigned) [Example 5A], the IC50 fell in the range of 5 to 50 nM under setting [3] and 5 to 50 nM under setting [4].

As for `Cc1nc(F)ccc1Oc1nc(C2CC2)c(C(F)(F)F)c(C)c1C(=O)Nc1ccnc([S@@](C)(=N)=O)c1` [Example 105C], the IC50 is less than 5 nM under setting [1] and less than 5 nM under setting [2].

With `Cc1nc(F)ccc1Oc1ncc(C(F)(F)F)c(C)c1C(=O)Nc1cccc([S@@](C)(=O)=NC(=O)[C@@H]2C[C@@H](O)CN2)c1` [Example 17D, 2-((6-fluoro-2-methylpyridin-3-yl)oxy)-N-(3-((R)—N-((2S,4R)-4-hydroxypyrrolidine-2-carbonyl)-S-methylsulfonimidoyl)phenyl)-4-methyl-5-(trifluoromethyl)nicotinamide], the IC50 under setting [5] is less than 5 nM and the IC50 under setting [6] is less than 5 nM.

In turn, `CNCC(=O)N=[S@](C)(=O)c1cccc(NC(=O)c2c(Oc3ccc(F)nc3C)ccc(C(F)(F)F)c2F)c1` [Example 17B, (R)-2-fluoro-6-((6-fluoro-2-methylpyridin-3-yl)oxy)-N-(3-(S-methyl-N-(methylglycyl)sulfonimidoyl)phenyl)-3-(trifluoromethyl)benzamide] returned a concentration for half-maximal inhibition (IC50) under setting [7] of less than 5 nM and an IC50 under setting [8] of less than 5 nM.

For the molecule `Cc1nc(F)ccc1Oc1ncc(C(F)F)c(C)c1C(=O)Nc1ccnc(S(C)(=N)=O)c1` (centres unmarked) [Example 48C, 5-(difluoromethyl)-2-((6-fluoro-2-methylpyridin-3-yl)oxy)-4-methyl-N-(2-(S-methylsulfonimidoyl)pyridin-4-yl)nicotinamide], the IC50 runs as follows: under setting [1], more than 200 nM; under setting [2], more than 200 nM.

The record behind these values is patent US20260356804A1, “SODIUM CHANNEL BLOCKING COMPOUNDS, DERIVATIVES THEREOF, AND METHODS OF THEIR USE” (LATIGO BIOTHERAPEUTICS, INC., priority 2022, published 2026).
